Data reported in patent US7341985B2, “2-Hydroxy-3-alkoxypropyl sulfides, sulfones, and sulfoxides: new surface active agents” (Air Products and Chemicals, Inc., priority 2004, dated 2008).

Experiments:
Format in all cases: physicochemical
[1] = Equilibrium surface tension (Kruss K-12 tensiometer, Wilhelmy plate); settings: 25±1° C., average of 10 measurements over 10 minutes
Experimental: Equilibrium surface tensions were determined for the compounds prepared in Examples 1-6, using a Kruss K-12 tensiometer with a platinum Wilhelmy plate, maintaining the temperature at 25±1° C. by means of a constant temperature circulating bath. The results, reported in Table 2, are averages of 10 measurements over a 10-minute period, and have a standard deviation of less than 0.01 dyne/cm.

Water solubility = test: Water solubility
[2] = Ross-Miles foam test (foam height and stability); settings: 0.1 wt % solution
Experimental: Foam height and stability (time to reach zero foam) were measured by the Ross-Miles foam test, using 0.1 wt % solutions of the surfactants.

[3] = Dynamic surface tension (Kruss BP-2 Bubble Pressure Tensiometer); settings: for Dynamic surface tension reduction of an aqueous solution (in words): summary of Table 4
Experimental: Dynamic surface tensions were determined for the compounds prepared in Examples 1-5, at 0.1 and 1.0 wt % levels, using a Kruss BP-2 Bubble Pressure Tensiometer.

[4] = 0.1 wt %, 1 b/s (bubbles/second)

Compound	Equilibrium Surface Tension ([1]; 0.1 wt % in water) [dynes/cm]	Equilibrium Surface Tension ([1]; 1.0 wt % in water) [dynes/cm]	Water Solubility (Water solubility) [wt %]	Initial Foam Height [2] [cm]	Time to 0 foam [2] [s]	Final Foam Height at 300 Sec [2] [cm]	Dynamic surface tension [3, 4] [dynes/cm]	Dynamic surface tension ([3]; 0.1 wt %, 5 b/s) [dynes/cm]	Dynamic surface tension ([3]; 0.1 wt %, 20 b/s) [dynes/cm]	Dynamic surface tension ([3]; 1.0 wt %, 1 b/s) [dynes/cm]	Dynamic surface tension ([3]; 1.0 wt %, 5 b/s) [dynes/cm]	Dynamic surface tension ([3]; 1.0 wt %, 20 b/s) [dynes/cm]	Dynamic surface tension reduction of an aqueous solution (in words) [3]
CCCCOCC(O)CSCCO (stereo not drawn) [MEBGE, 2-hydroxyethyl-2′-hydroxy-3′-butoxypropyl sulfide]	37.1	32.6	<0.1	1.2	2	0	59	61	65	43	44	44	moderate
CCCCC(CC)COCC(O)CSCCO (stereo not drawn) [MEEHGE, 2-hydroxyethyl-2′-hydroxy-3′-(2-ethylhexyloxy)propyl sulfide]	30.7	29.3	<0.1	0.6	6	0	35	39	45	30	30	32	strong
CCCCC(CC)COCC(O)CSCC(O)CO (stereo not drawn) [TGEHGE, 2,3-dihydroxypropyl-2′-hydroxy-3′-(2-ethylhexyloxy)propyl sulfide]	28.3	26.7	<0.1	1.0	6	0	37	47	53	27	28	30	strong
